# Legend:
# [1] = Inhibition of Staphylococcus aureus thymidylate kinase
# [2] = Distribution co-efficient, log D of the compound; settings: octanol/water
# [3] = system: Staphylococcus aureus; test: Antimicrobial activity against methicillin- and quinolone-resistant Staphylococcus aureus ARC517; type: functional
# [4] = Inhibition of Streptococcus pneumoniae thymidylate kinase
# [5] = system: Staphylococcus aureus; test: Antimicrobial activity against methicillin- and quinolone-sensitive Staphylococcus aureus ARC516; type: functional
# [6] = system: Streptococcus pneumoniae; test: Antimicrobial activity against Streptococcus pneumoniae ARC548; type: functional
# [7] = system: Staphylococcus lugdunensis; test: Antimicrobial activity against Staphylococcus lugdunensis; type: functional
# [8] = target: Cytochrome P450 3A4 (Homo sapiens, UniProt P08684); test: Inhibition of CYP3A4 (unknown origin); type: ADME
# [9] = Inhibition of Escherichia coli thymidylate kinase
# [10] = target: Cytochrome P450 2D6 (Homo sapiens, UniProt P10635); test: Inhibition of CYP2D6 (unknown origin); type: ADME
# [11] = system: Escherichia coli; test: Antimicrobial activity against Escherichia coli ARC523; type: functional
# [12] = Equilibrium solubility of the compound at pH 7.4; type: physicochemical; settings: buffer
# [13] = system: Pseudomonas aeruginosa; test: Antimicrobial activity against Pseudomonas aeruginosa ARC545; type: functional
# [14] = system: Streptococcus agalactiae; test: Antimicrobial activity against Streptococcus agalactiae; type: functional
# [15] = Intrinsic clearance in rat hepatocytes assessed per million cells; type: ADME, cell-based, Hepatocyte; settings: read-out: CLH
# [16] = target: Cytochrome P450 1A2 (Homo sapiens, UniProt P05177); test: Inhibition of CYP1A2 (unknown origin); type: ADME
# [17] = system: Enterococcus faecalis; test: Antimicrobial activity against vancomycin-resistant Enterococcus faecalis ARC1618; type: functional
# [18] = system: Candida albicans; test: Antimicrobial activity against Candida albicans; type: functional
# [19] = system: Plasma; test: Unbound fraction in human plasma; type: ADME, cell-free
# [20] = Cytotoxicity against sheep erythrocytes assessed hemolysis; type: cell-based, Ovis aries; settings: erythrocyte
# [21] = target: Voltage-gated inwardly rectifying potassium channel KCNH2 (Homo sapiens, UniProt Q12809); test: Inhibition of human ERG
# [22] = target: Thymidylate kinase (Homo sapiens, UniProt P23919); test: Inhibition of human thymidylate kinase
# [23] = target: Cytochrome P450 2C9 (Homo sapiens, UniProt P11712); test: Inhibition of CYP2C9 (unknown origin); type: ADME
# [24] = system: Staphylococcus epidermidis; test: Antimicrobial activity against Staphylococcus epidermidis ARC323; type: functional
# [25] = Intrinsic clearance in rat liver microsomes; type: ADME, Microsome; settings: read-out: CLH
# [26] = system: Klebsiella pneumoniae; test: Antimicrobial activity against Klebsiella pneumoniae ARC1865; type: functional
# [27] = system: Enterococcus faecium; test: Antimicrobial activity against linezolid-resistant Enterococcus faecium ARC1239; type: functional
# [28] = target: Cytochrome P450 2C19 (Homo sapiens, UniProt P33261); test: Inhibition of CYP2C19 (unknown origin); type: ADME
# [29] = system: Streptococcus pyogenes; test: Antimicrobial activity against Streptococcus pyogenes ARC838; type: functional
# [30] = system: Haemophilus influenzae; test: Antimicrobial activity against Haemophilus influenzae ARC446; type: functional
# [31] = Cytotoxicity against human A549 cells; type: cell-based; settings: read-out: MIC
# [32] = system: Staphylococcus haemolyticus; test: Antimicrobial activity against Staphylococcus haemolyticus; type: functional
# Thymidylate kinase, sequence (P23919 whole entry): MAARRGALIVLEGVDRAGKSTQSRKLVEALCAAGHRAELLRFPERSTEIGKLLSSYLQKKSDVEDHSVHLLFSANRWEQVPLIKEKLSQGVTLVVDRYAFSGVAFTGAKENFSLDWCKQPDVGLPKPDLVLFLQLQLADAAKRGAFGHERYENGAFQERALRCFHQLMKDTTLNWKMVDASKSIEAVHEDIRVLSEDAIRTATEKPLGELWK
# Cytochrome P450 2D6, sequence (P10635 whole entry): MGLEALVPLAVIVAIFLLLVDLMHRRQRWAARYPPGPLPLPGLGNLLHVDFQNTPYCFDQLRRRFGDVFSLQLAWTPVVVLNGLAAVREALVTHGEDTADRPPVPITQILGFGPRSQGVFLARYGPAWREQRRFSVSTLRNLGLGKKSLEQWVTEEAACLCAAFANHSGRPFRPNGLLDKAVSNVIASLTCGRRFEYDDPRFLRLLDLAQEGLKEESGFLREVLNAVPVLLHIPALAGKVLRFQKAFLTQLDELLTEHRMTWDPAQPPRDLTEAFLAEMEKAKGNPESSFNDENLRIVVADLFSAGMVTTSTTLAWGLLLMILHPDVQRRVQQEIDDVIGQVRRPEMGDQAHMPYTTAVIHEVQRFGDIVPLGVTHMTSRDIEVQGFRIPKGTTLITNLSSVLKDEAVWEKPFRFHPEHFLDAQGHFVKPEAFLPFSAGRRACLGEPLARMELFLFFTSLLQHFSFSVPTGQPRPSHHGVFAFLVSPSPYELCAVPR
# Voltage-gated inwardly rectifying potassium channel KCNH2, sequence (Q12809 whole entry): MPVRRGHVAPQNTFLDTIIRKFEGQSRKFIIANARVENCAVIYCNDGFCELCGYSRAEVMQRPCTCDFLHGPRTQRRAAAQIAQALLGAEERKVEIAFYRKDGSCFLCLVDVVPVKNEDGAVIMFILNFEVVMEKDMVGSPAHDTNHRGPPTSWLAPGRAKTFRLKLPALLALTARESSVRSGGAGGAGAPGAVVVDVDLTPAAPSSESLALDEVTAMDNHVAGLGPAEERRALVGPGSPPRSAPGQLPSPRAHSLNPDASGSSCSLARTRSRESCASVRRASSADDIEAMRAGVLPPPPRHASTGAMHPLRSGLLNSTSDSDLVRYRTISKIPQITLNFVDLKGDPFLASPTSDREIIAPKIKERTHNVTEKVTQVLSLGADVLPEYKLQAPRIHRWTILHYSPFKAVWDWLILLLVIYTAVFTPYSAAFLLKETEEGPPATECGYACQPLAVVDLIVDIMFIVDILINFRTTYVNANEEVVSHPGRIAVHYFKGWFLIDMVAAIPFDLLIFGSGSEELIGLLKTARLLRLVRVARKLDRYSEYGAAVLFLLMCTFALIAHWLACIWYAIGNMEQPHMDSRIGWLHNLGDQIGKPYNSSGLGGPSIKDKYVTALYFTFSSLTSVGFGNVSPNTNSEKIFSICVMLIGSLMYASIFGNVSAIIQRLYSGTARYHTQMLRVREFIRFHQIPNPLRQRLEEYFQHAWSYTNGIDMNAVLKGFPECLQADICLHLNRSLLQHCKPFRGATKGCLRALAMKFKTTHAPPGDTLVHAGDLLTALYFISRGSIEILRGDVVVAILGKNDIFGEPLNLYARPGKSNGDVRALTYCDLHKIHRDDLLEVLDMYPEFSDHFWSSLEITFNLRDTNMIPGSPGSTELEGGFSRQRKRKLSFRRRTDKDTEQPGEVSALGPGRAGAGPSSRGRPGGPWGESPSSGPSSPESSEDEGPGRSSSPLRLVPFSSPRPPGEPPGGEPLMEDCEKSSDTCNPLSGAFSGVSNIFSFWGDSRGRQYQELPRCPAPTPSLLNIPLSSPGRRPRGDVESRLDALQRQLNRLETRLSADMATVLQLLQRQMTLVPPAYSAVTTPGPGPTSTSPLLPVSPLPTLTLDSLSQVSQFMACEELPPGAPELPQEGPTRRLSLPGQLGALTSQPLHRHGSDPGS
# Cytochrome P450 2C19, sequence (P33261 whole entry): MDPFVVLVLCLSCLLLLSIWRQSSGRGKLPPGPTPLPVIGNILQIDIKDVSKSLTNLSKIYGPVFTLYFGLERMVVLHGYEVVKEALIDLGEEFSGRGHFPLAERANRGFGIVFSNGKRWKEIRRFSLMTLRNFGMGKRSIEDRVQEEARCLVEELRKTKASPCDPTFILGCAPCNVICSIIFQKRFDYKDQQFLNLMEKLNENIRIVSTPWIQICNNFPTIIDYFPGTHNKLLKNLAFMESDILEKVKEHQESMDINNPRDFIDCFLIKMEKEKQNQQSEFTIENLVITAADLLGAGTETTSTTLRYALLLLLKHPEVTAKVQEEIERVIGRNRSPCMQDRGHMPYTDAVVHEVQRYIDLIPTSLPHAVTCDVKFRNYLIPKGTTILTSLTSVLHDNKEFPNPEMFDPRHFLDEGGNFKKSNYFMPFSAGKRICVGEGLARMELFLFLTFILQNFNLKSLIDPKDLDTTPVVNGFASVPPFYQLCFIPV
# Cytochrome P450 2C9, sequence (P11712 whole entry): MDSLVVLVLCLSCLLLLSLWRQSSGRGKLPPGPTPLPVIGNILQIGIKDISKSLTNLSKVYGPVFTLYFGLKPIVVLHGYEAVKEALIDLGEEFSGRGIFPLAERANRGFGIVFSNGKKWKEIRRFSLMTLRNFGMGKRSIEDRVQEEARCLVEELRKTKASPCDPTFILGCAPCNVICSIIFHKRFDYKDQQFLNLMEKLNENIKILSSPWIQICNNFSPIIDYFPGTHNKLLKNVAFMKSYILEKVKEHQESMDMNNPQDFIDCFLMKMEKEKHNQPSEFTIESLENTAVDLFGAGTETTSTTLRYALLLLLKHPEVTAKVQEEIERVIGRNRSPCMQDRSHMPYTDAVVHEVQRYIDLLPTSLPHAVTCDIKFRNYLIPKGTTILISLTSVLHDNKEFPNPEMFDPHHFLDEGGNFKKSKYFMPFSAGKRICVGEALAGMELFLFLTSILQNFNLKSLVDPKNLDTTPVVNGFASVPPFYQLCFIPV
# Cytochrome P450 3A4, sequence (P08684 whole entry): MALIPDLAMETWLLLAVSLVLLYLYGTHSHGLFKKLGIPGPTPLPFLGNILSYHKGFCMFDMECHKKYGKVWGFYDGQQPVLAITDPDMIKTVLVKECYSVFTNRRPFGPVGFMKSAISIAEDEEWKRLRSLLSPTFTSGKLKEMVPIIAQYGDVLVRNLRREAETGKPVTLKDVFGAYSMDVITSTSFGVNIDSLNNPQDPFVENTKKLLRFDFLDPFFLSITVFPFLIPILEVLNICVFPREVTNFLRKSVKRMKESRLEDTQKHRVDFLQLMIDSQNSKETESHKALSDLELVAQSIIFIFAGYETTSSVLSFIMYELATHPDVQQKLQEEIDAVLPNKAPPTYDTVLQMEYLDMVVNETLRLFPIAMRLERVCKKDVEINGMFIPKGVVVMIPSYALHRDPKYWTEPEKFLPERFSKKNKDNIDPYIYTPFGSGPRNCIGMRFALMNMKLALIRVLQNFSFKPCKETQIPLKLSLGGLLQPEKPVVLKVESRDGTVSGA
# Cytochrome P450 1A2, sequence (P05177 whole entry): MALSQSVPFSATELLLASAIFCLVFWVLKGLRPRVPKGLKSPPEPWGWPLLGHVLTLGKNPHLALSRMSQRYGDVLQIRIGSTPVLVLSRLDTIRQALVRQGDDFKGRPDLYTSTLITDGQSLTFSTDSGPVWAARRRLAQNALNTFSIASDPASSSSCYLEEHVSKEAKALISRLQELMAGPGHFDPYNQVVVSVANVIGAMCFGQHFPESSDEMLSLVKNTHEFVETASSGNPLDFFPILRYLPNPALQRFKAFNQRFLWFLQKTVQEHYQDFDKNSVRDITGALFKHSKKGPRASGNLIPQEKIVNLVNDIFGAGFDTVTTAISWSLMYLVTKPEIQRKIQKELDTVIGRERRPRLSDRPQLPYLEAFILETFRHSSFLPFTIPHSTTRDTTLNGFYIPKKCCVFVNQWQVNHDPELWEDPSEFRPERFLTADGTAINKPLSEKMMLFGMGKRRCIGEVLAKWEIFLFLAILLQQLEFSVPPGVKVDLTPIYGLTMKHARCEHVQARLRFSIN
structure (smiles),measurement,setting,value
Cc1cn([C@H]2CCCN(S(=O)(=O)c3ccc(O)c(Oc4cccc(Br)c4)c3)C2)c(=O)[nH]c1=O,IC50,[1],2 nM
same,logD,[2],2.3
same,MIC,[3],0.5 µg/mL
same,IC50,[4],0.7 nM
same,MIC,[5],1 µg/mL
same,MIC,[6],0.1 µg/mL
Cc1cc(Oc2cc(S(=O)(=O)N3CCC[C@H](n4cc(C)c(=O)[nH]c4=O)C3)ccc2O)ccc1Cl,IC50,[1],3 nM
same,logD,[2],2.4
same,MIC,[3],0.5 µg/mL
same,IC50,[4],18 nM
same,MIC,[5],1 µg/mL
same,MIC,[6],0.25 µg/mL
COc1ccc(S(=O)(=O)N2CCC[C@H](n3cc(C)c(=O)[nH]c3=O)C2)cc1Oc1cccc(Cl)c1,IC50,[1],358 nM
same,MIC,[3],16 µg/mL
same,IC50,[4],6 nM
same,MIC,[5],> 64 µg/mL
same,MIC,[6],2 µg/mL
Cc1cn([C@H]2CCCN(S(=O)(=O)c3ccc(C(=O)O)c(Oc4cccc(Cl)c4)c3)C2)c(=O)[nH]c1=O,IC50,[1],2 nM
same,logD,[2],-1.3
same,MIC,[3],> 64 µg/mL
same,IC50,[4],1 nM
same,MIC,[5],> 64 µg/mL
same,MIC,[6],2 µg/mL
Cc1cn([C@H]2CCCN(S(=O)(=O)c3ccc(C#N)c(Oc4cccc(Cl)c4)c3)C2)c(=O)[nH]c1=O,IC50,[1],530 nM
same,logD,[2],1
same,MIC,[3],> 64 µg/mL
same,IC50,[4],23 nM
same,MIC,[5],> 64 µg/mL
same,MIC,[6],2 µg/mL
Cc1cn([C@H]2CCCN(S(=O)(=O)c3ccc(O)c(Oc4cccc(F)c4)c3)C2)c(=O)[nH]c1=O,IC50,[1],57 nM
same,logD,[2],1.6
same,MIC,[3],16 µg/mL
same,IC50,[4],4 nM
same,MIC,[5],16 µg/mL
same,MIC,[6],0.25 µg/mL
Cc1cn([C@H]2CCCN(S(=O)(=O)c3ccc(O)c(Oc4cccc(Cl)c4)c3)C2)c(=O)[nH]c1=O,MIC,[7],0.016 µg/mL
same,IC50,[8],> 20000 nM
same,IC50,[9],4500 nM
same,IC50,[10],> 20000 nM
same,MIC,[11],> 64 µg/mL
same,solubility thermodynamic,[12],193 µM
same,logD,[2],2.1
same,MIC,[13],> 64 µg/mL
same,MIC,[14],0.5 µg/mL
same,hepatocyte CLint,[15],45 µL/min/1e6 cells
same,IC50,[16],> 20000 nM
same,MIC,[17],0.5 µg/mL
same,MIC,[18],> 64 µg/mL
same,Fu,[19],1%
same,MIC,[20],> 64 µg/mL
same,MIC,[3],0.5 µg/mL
same,MIC90,[3],0.5 µg/mL
same,IC50,[21],27000 nM
same,IC50,[22],> 200000 nM
same,IC50,[23],> 20000 nM
same,MIC,[24],2 µg/mL
same,MIC,[5],0.25 µg/mL
same,microsomal CLint,[25],27 µL/min/mg
same,MIC,[26],> 64 µg/mL
same,MIC,[27],0.13 µg/mL
same,IC50,[28],> 20000 nM
same,MIC90,[29],0.5 µg/mL
same,MIC,[30],> 64 µg/mL
same,MCC,[31],> 64 µg/mL
same,MIC,[6],0.03 µg/mL
same,MIC90,[6],0.06 µg/mL
same,MIC,[32],0.03 µg/mL
Cc1cn([C@H]2CCCN(S(=O)(=O)c3ccc(C(=O)O)c(Oc4ccc(Cl)c(Cl)c4)c3)C2)c(=O)[nH]c1=O,IC50,[1],23 nM
same,logD,[2],-0.9
same,MIC,[3],> 64 µg/mL
same,IC50,[4],< 6 nM
same,MIC,[5],> 64 µg/mL
same,MIC,[6],4 µg/mL
C[C@H]1COc2c(N3CCN(C)CC3)c(F)cc3c(=O)c(C(=O)O)cn1c23.C[C@H]1COc2c(N3CCN(C)CC3)c(F)cc3c(=O)c(C(=O)O)cn1c23.O [LEVOFLOXACIN],MIC90,[3],16 µg/mL
same,MIC,[29],0.25 µg/mL
Cc1cn([C@H]2CCCN(S(=O)(=O)c3ccc(O)c(Oc4ccccc4)c3)C2)c(=O)[nH]c1=O,IC50,[1],255 nM
same,logD,[2],1.5
same,MIC,[3],16 µg/mL
same,IC50,[4],14 nM
same,MIC,[5],16 µg/mL
same,MIC,[6],0.5 µg/mL
Cc1cn([C@H]2CCCN(S(=O)(=O)c3ccc(CO)c(Oc4cccc(Cl)c4)c3)C2)c(=O)[nH]c1=O,IC50,[1],610 nM
same,MIC,[3],64 µg/mL
same,IC50,[4],28 nM
same,MIC,[5],32 µg/mL
same,MIC,[6],2 µg/mL
Cc1cn([C@H]2CCCN(S(=O)(=O)c3cccc(Oc4ccccc4)c3)C2)c(=O)[nH]c1=O,IC50,[1],81500 nM
same,IC50,[4],20900 nM
same,MIC,[5],> 64 µg/mL
same,MIC,[6],> 64 µg/mL
Cc1cn([C@H]2CCCN(S(=O)(=O)c3ccc(C(N)=O)c(Oc4cccc(Cl)c4)c3)C2)c(=O)[nH]c1=O,IC50,[1],784 nM
same,logD,[2],2
same,MIC,[3],> 64 µg/mL
same,IC50,[4],10 nM
same,MIC,[5],> 64 µg/mL
same,MIC,[6],2 µg/mL
Cc1cccc(Oc2cc(S(=O)(=O)N3CCC[C@H](n4cc(C)c(=O)[nH]c4=O)C3)ccc2C(=O)O)c1,logD,[2],-1.6
same,MIC,[3],> 64 µg/mL
same,IC50,[4],6 nM
same,MIC,[5],> 64 µg/mL
same,MIC,[6],16 µg/mL
Cc1cn([C@H]2CCCN(S(=O)(=O)c3ccc(O)c(Oc4cccc(C(F)(F)F)c4)c3)C2)c(=O)[nH]c1=O,IC50,[1],64 nM
same,logD,[2],2.3
same,MIC,[3],2 µg/mL
same,IC50,[4],3 nM
same,MIC,[5],2 µg/mL
same,MIC,[6],0.1 µg/mL
Cc1cn([C@H]2CCCN(S(=O)(=O)c3ccc(O)c(Oc4cc(F)cc(Cl)c4)c3)C2)c(=O)[nH]c1=O,IC50,[1],12 nM
same,MIC,[3],1 µg/mL
same,IC50,[4],0.7 nM
same,MIC,[5],1 µg/mL
same,MIC,[6],0.05 µg/mL
Cc1cn([C@H]2CCCN(S(=O)(=O)c3ccc(O)c(Oc4ccc(Cl)cc4)c3)C2)c(=O)[nH]c1=O,IC50,[1],18 nM
same,logD,[2],2.1
same,MIC,[3],2 µg/mL
same,IC50,[4],8 nM
same,MIC,[5],1 µg/mL
same,MIC,[6],0.5 µg/mL
Cc1cn([C@H]2CCCN(S(=O)(=O)c3cccc(Oc4ccc(Cl)c(Cl)c4)c3)C2)c(=O)[nH]c1=O,IC50,[1],2780 nM
same,logD,[2],> 3.5
same,MIC,[3],4 µg/mL
same,IC50,[4],292 nM
same,MIC,[5],4 µg/mL
same,MIC,[6],4 µg/mL

# Reference: ChEMBL document CHEMBL2331361, “Sulfonylpiperidines as novel, antibacterial inhibitors of Gram-positive thymidylate kinase (TMK)” (Bioorg Med Chem Lett, 2013)
